Assay results from PMC3832036, “The crystal structures of the tri-functional Chloroflexus aurantiacus and bi-functional Rhodobacter sphaeroides malyl-CoA lyases and comparison with CitE-like superfamily enzymes and malate synthases” (BMC Structural Biology, 2013).

Assays:
MCLR [1] = target: T1, MCLR (Cereibacter sphaeroides, UniProt Q3J5L6); conditions: Mg2+; pH 8.5; two closed active sites; not intentionally added, modelled from density
T1 construct: gene mcl1

MCLR [2] = target: T1, MCLR; conditions: glyoxylate and Mg2+ present; pH 8.5; one of the closed active sites
MCLR [3] = target: T1, MCLR; conditions: 0.5 mM acetyl-CoA, 100 mM pyruvate, 5 mM MgCl2, MOPS/KOH pH 7.5
[4] = target: the molecule itself; assay: SEC; Superdex 200 10/30 GL, 20 mM Tris/HCl pH 7.5, 2 mM MgCl2, 100 mM NaCl, 4°C; molecular weight against protein standards

## O=CC(=O)O [GLX, glyoxylate]
MCLR [1]
  X-ray crystal structure, glyoxylate carried over from E. coli, 2.1 A: active sites contained electron density that allowed modeling of glyoxylate molecules together with magnesium ions

## CCC(=O)SCCNC(=O)CCNC(=O)[C@H](O)C(C)(C)COP(=O)(O)OP(=O)(O)OC[C@H]1O[C@@H](n2cnc3c(N)ncnc32)[C@H](O)[C@@H]1OP(=O)(O)O [PCO, propionyl-CoA]
MCLR [2]
  X-ray crystal structure, crystal soaking, 2.1 A: one of these closed active sites was also occupied by propionyl-CoA

## CC(=O)C(=O)O [PYR, pyruvate]
MCLR [3]
  reversed phase HPLC of citramalyl-CoA formation: formation of citramalyl-CoA was confirmed by reversed phase HPLC analysis

B1: malyl-CoA lyase of Chloroflexus aurantiacus (enzyme, Chloroflexus aurantiacus OK-70-fl, UniProt S5N020 1-348, looked up)
chain: MRKLAHNFYKPLAIGAPEPIRELPVRPERVVHFFPPHVEKIRARIPEVAKQVDVLCGNLEDAIPMDAKEAARNGFIEVVKATDFGDTALWVRVNALNSPWVLDDIAEIVAAVGNKLDVIMIPKVEGPWDIHFVDQYLALLEARHQIKKPILIHALLETAQGMVNLEEIAGASPRMHGFSLGPADLAASRGMKTTRVGGGHPFYGVLADPQEGQAERPFYQQDLWHYTIARMVDVAVAHGLRAFYGPFGDIKDEAACEAQFRNAFLLGCTGAWSLAPNQIPIAKRVFSPDVNEVLFAKRILEAMPDGSGVAMIDGKMQDDATWKQAKVIVDLARMIAKKDPDLAQAYGL
notes: Malyl-CoA lyase of Chloroflexus aurantiacus OK-70-fl, GenBank AGR55786; gene amplified from chromosomal DNA with primers upstream (NdeI at the start codon) and downstream of the gene, cloned into pT7-7; 348 residues (models run from Arg2 to Leu348, the native C-terminus); calculated 38.4 kDa per monomer; Hexamer (dimer of trimers); No tag is named for this construct; also called MCLC; MCL; …
[4]
  stoichiometry N: 6

B2: malyl-CoA lyase of Rhodobacter sphaeroides (enzyme, Rhodobacter sphaeroides 2.4.1)
chain: MSFRLQPAPPARPNRCQLFGPGSRPALFEKMAASAADVINLDLEDSVAPDDKAQARANIIEAINGLDWGRKYLSVRINGLDTPFWYRDVVDLLEQAGDRLDQIMIPKVGCAADVYAVDALVTAIERAKGRTKPLSFEVIIESAAGIAHVEEIAASSPRLQAMSLGAADFAASMGMQTTGIGGTQENYYMLHDGQKHWSDPWHWAQAAIVAACRTHGILPVDGPFGDFSDDEGFRAQARRSATLGMVGKWAIHPKQVALANEVFTPSETAVTEAREILAAMDAAKARGEGATVYKGRLVDIASIKQAEVIVRQAEMISA
notes: Malyl-CoA lyase of Rhodobacter sphaeroides 2.4.1, GenBank ACJ71673; model 4L9Z holds Ser2 or Phe3 through Met315 with only the C-terminal three residues missing (lid domain residues 264-318); 36.8 kDa per monomer; Hexamer (dimer of trimers); The His10 tag had no electron density in the crystals; also called MCLR; MCL; source: E. coli BL21(DE3), purified (Ni-Sepharose, gel filtration); not shown: …
[4]
  stoichiometry N: 6
